{"source": "patent EP0192611A2", "about": "“Acylated hexose derivatives and method for their preparation” (CIBA-GEIGY AG, priority 1985, dated 1986)", "system": "Influenza-Viren", "assay": "Own studies: prophylaxis and therapy of virus infection in mice infected with influenza viruses", "type": "in vivo, Mäuse", "conditions": "per se, without admixed vaccine", "excerpt": "Aus der Französischen Patentanmeldung Nr. 74 22 909 mit der Publikationsnummer 2 292 486 sind Huramylpeptide vom Typ der Verbindung N-Acetyl-muramyl-L-alanyl-D-isoglutamin (\"MDP\") bekannt. Diese Verbindungen sind als immunologische Adjuvanzien beschrieben, d.h. sie können in Mischung mit Impfstoffen dazu benützt werden, den Impferfolg zu verbessern. Eigene Untersuchungen, z.B. bei mit Influenza-Viren infizierten Mäusen, haben ergeben, dass N-Acetyl-muramyl-L-alanyl-D-isoglutamin per se, d.h. ohne Beimengung von Impfstoffen, bei der Prophylaxe und Therapie von Virusinfektionen unwirksam ist. Auch ist die Verwendbarkeit strukturell einfacher Muramylpeptide und ihrer Analogen gegen Virusinfektionen bisher nicht beschrieben.", "data": [{"compound": "CC(=O)N[C@H]1C(O)O[C@H](CO)[C@@H](O)[C@@H]1O[C@H](C)C(=O)N[C@@H](C)C(=O)N[C@H](CCC(=O)O)C(N)=O", "note": "(stereo partly drawn) [N-Acetyl-muramyl-L-alanyl-D-isoglutamin]", "values": [{"measurement": "Wirksamkeit bei der Prophylaxe und Therapie von Virusinfektionen", "result": "unwirksam"}]}]}
